One assay concerns the target Glutamate receptors; NMDA/AMPA (Rattus norvegicus) (UniProt P35439+Q00959+Q00960+Q00961+Q62645+Q8VHN2+Q9R1M7+P19491+P19492+P19493+P19490). The assay can be described thus: Depolarizing activity relative to that of L-Glutamate (L-Glu=1) tested against mixed type(NMDA & AMPA) receptor in the newborn rat spinal motoneurone. Format: protein-complex assay.
In the case of `O=C(O)[C@@H]1CCN[C@H]1C(=O)O`, the Relative Potency Ratio turned out to be 5.

The target in the next assay is Glutamate NMDA receptor (Rattus norvegicus) (UniProt P35439+Q00959+Q00960+Q00961+Q62645+Q8VHN2+Q9R1M7). The assay can be described thus: Depolarizing activity relative to that of L-Glutamate (L-Glu=1) tested against NMDA type receptor in the newborn rat spinal motoneurone. It is filed as protein-complex assay.
For the molecule `O=C(O)[C@H]1NCCC[C@H]1C(=O)O`, the Relative Potency Ratio is 10.

Turning to `O=C(O)[C@H]1NCC[C@H]1C(=O)O`, the Relative Potency Ratio worked out at 0.1.

With `O=C(O)[C@H]1CCN[C@H]1C(=O)O`, the Relative Potency Ratio came to 3.

With `CN[C@H](CC(=O)O)C(=O)O`, the Relative Potency Ratio is 50.

With `O=C(O)[C@H]1CCCN[C@@H]1C(=O)O` (racemic), the Relative Potency Ratio was 20.
